Data reported in patent US6949544B2, “Inhibitors of c-Jun N-terminal kinases (JNK) and other protein kinases” (Vertex Pharmaceuticals Incorporated, priority 2001, dated 2005).

Columns and labels:
Assay type in all cases: biochemical
[1] = biological target: Glycogen Synthase Kinase 3 (GSK-3) (Homo sapiens, UniProt P49841); assay: GSK-3 inhibition assay (standard coupled enzyme assay); conditions: 60 nM GSK-3, 10 μM ATP; read-out: GSK-3 Inhibitory Activity (Ki rating A-C)
Outline: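 Pyruvate kinase/lactate dehydrogenase-coupled assay with 60 nM GSK-3 and 300 μM HSSPHQp-SEDEEE peptide in HEPES pH 7.5; compound preincubated 5 min at 30 °C, reaction started with 10 μM ATP. NADH absorbance at 340 nm tracked over 5 min; IC50 from rates versus inhibitor concentration.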

[2] = biological target: T1, Lck kinase purified from bovine thymus (Bos taurus, UniProt Q3ZCM0); assay: Lck inhibition assay (33P incorporation into poly Glu-Tyr); conditions: 10 μM ATP; read-out: Activity in the Lck Inhibition Assay (Ki rating A-C)
T1 construct: Lck kinase purified from bovine thymus; purchased Upstate Biotechnology 14-106; host or cells: bovine thymus (tissue-purified)
T1 sequence (Q3ZCM0 1-509): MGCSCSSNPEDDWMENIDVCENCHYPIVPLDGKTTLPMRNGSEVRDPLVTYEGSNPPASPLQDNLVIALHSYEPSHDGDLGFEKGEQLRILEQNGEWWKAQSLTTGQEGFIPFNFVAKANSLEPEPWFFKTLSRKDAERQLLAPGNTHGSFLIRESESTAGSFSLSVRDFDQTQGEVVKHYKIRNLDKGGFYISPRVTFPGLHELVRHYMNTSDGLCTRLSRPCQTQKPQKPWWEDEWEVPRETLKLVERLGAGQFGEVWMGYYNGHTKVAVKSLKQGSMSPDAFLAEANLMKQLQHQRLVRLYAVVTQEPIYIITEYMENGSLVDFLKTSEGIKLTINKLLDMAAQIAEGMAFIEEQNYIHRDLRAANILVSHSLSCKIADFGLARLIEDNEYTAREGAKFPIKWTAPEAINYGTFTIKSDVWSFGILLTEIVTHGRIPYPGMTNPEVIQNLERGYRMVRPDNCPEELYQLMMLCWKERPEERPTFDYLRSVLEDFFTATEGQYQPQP
Outline: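 Filter-binding radiometric assay of 33P transfer from ATP to poly Glu-Tyr (4:1, 5 mg/ml) by bovine thymus Lck in 0.05 M HEPES pH 7.6, 10 mM MgCl2, 2 mM DTT, 0.25 mg/ml BSA, 10 μM ATP. After 10 min at 30° C, reaction started with 33P-ATP, run 20 min, quenched with TCA; filter-bound radioactivity counted by scintillation.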

[3] = biological target: T2, full length recombinant human Src kinase (Homo sapiens, UniProt P12931); assay: Src inhibition assay (33P incorporation into poly Glu-Tyr)
T2 construct: full length recombinant human Src kinase; purchased Upstate Biotechnology 14-117; host or cells: baculo viral cells (baculovirus expression)
T2 sequence (P12931 whole entry): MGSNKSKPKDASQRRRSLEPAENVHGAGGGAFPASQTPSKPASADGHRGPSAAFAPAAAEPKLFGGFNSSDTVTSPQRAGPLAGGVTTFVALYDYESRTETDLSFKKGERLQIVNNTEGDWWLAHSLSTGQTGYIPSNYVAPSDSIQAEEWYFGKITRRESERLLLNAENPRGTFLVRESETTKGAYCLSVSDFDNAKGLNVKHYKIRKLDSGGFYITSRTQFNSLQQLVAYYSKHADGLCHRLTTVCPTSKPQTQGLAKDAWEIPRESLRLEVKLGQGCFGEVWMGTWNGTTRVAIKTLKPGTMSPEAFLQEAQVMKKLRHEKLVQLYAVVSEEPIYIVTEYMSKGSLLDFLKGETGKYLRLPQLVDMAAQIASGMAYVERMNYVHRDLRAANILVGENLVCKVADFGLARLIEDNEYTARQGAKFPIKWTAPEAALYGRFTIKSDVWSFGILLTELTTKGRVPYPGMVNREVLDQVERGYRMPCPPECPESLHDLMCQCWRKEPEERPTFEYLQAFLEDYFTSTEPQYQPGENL
Description: The compounds were assayed as inhibitors of full length recombinant human Src kinase (from Upstate Biotechnology, cat. no. 14-117) expressed and purified from baculo viral cells. Src kinase activity was monitored by following the incorporation of ^33P from ATP into the tyrosine of a random poly Glu-Tyr polymer substrate of composition, Glu:Tyr=4:1 (Sigma, cat. no. P-0275). The following were the final concentrations of the assay components: 0.05 M HEPES, pH 7.6, 10 mM MgCl2, 2 mM DTT, 0.25 mg/ml BSA, 10 μM ATP (1-2 μCi ^33P-ATP per reaction), 5 mg/ml poly Glu-Tyr, and 1-2 units of recombinant human Src kinase. In a typical assay, all the reaction components with the exception of ATP were pre-mixed and aliquoted into assay plate wells. […] The assay plate was incubated at 30° C. for 10 min before initiating the reaction with ^33P-ATP. After 20 min of reaction, the reactions were quenched with 150 μl of 10% trichloroacetic acid (TCA) containing 20 mM Na3PO4. The quenched samples were then transferred to a 96-well filter plate (Whatman, UNI-Filter GF/F Glass Fiber Filter, cat no. 7700-3310) installed on a filter plate vacuum manifold. Filter plates were washed four times with 10% TCA containing 20 mM Na3PO4 and then 4 times with methanol. 200 μl of scintillation fluid was then added to each well. The plates were sealed and the amount of radioactivity associated with the filters was quantified on a TopCount scintillation counter.

CDK-2/Cyclin A = CDK-2/Cyclin A (Homo sapiens, UniProt P24941); assay: CDK2 inhibition assay (standard coupled enzyme assay); conditions: 25 nM CDK-2/Cyclin A; read-out: CDK2 Inhibitory Activity (Ki rating A-C)
Outline: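 Pyruvate kinase/lactate dehydrogenase-coupled assay in pH 7.5 HEPES with 100 μM peptide substrate and ATP […]; compound (30 μM final) preincubated 10 min at 30° C before adding CDK-2/Cyclin A to 25 nM.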

Chain of Glycogen Synthase Kinase 3 (GSK-3) (P49841 whole entry): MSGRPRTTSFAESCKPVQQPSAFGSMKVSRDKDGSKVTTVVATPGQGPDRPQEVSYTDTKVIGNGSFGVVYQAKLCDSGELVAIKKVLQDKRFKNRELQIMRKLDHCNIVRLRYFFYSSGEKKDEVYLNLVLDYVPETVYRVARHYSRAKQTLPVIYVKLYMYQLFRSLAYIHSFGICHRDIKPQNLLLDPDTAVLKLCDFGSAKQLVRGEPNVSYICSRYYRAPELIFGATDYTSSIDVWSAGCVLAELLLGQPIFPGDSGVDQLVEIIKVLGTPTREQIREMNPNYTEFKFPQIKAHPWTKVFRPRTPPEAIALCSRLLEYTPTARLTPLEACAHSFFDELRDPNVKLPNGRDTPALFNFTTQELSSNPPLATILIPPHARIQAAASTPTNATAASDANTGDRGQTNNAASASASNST

| Ki [1] [µM] | Ki [2] [µM] | Ki ([3]; 10 μM ATP, read-out: Activity in the SRC Inhibition Assay (Ki rating A-C)) [µM] | Ki (CDK-2/Cyclin A) [µM] | inhibition at 2 µM ([3]; at a 2 μM inhibitor concentration, read-out: Activity in the SRC Inhibition Assay (percent inhibition rating D-F)) [%] | SMILES |
| --- | --- | --- | --- | --- | --- |
| 0.1 to 1 | > 1 | > 1 | > 5 | – | COc1cc(-c2ccnc(Nc3ccc(N)cc3)n2)cc(OC)c1OC [Compound I-34] |
| 0.1 to 1 | 0.1 to 1 | – | > 5 | 24 to 66 | COc1cc(-c2ccnc(Nc3cccc(N)c3)n2)cc(OC)c1OC [Compound I-57] |
